Laboratory results: patent US7919488B2, “Therapeutic compounds” (Pfizer Inc., priority 2006, dated 2011)
Structures can show the parent of a compound that is named as a salt.

Key:
Type in all cases: biochemical
CYP3A4 [1] = biological target: T1, CYP3A4 (Homo sapiens, UniProt P08684); assay: IC50 against CYP3A4 by inhibition of testosterone metabolism in human liver microsomes; conditions: 0.1 mg/mL human liver microsomes, 25 μM testosterone, 1 mM NADPH, 6-β-OH-testosterone production, eight minutes; read-out: IC50, μM (HLM, testosterone)
T1 construct: 0.1 mg/mL human liver microsomes; from tissue; host or cells: human liver microsomes
T1 sequence (P08684 whole entry): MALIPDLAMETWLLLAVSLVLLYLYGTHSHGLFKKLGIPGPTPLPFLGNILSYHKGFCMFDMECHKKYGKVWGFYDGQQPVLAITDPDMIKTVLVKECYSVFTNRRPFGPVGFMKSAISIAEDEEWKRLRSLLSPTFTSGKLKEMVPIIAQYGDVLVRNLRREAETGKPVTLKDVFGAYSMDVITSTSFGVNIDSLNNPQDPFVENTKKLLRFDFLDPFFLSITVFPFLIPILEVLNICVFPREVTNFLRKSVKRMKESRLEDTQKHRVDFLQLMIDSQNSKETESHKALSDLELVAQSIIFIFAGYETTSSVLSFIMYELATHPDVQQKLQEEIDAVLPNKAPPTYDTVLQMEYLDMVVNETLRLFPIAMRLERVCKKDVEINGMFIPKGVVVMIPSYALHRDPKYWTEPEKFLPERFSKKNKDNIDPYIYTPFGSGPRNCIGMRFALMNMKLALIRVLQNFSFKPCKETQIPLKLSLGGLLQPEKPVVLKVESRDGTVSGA
Method: 2. Determination of IC50 Against CYP3A4 by Measurement of Inhibition of Testosterone Metabolism
This assay was performed using a standard 96 well plate design. […] Quantitation of metabolite peak area ratio against an internal standard is determined by LC-MS/MS analysis. The production of 6-β-OH-testosterone from testosterone metabolism is determined after incubation for eight minutes by comparison to a standard curve generated for the metabolite
(§1) Samples were analyzed in the MRM mode using a Sciex API 3000 mass spectrometer (Applied Biosystems, Foster City, Calif.) with a Paradigm MS4 binary pump (Michrom BioResources Inc., Auburn, Calif.) and a LEAP CTC PAL autosampler (LEAP Technologies, Carrboro, N.C.). A Phenomenex Synergi, 4μ, Polar-RP, 10×2.0 mm column (Phenomenex, Torrance, Calif.) was used for separation with a mobile phase composition of: 0.1% formic acid in water (A) and: 0.1% formic acid in methanol (B). The following gradient was used: […]
(§2) The sample injection volume was 10 μL and flow was split post-column with 0.4 mL/min going to the mass spectrometer. Analysis was performed using the following API 3000 mass spectrometer settings: […]

[2] = biological target: T2, recombinant CYP3A4-b5 enzyme (Baculosomes®) (Homo sapiens, UniProt P08684); assay: Kiapp against recombinant CYP3A4 enzyme (Baculosomes), BFC substrate; conditions: recombinant CYP3A4-b5 (Invitrogen), 5 uM BFC, 200 uM NADPH, pre-incubation at least 30 minutes, pH 7.0, room temperature
T2 construct: purchased Invitrogen (Carlsbad, Calif.)
T2 sequence (P08684 whole entry): as above
Method: 1. Determination of Compound Kiapp
A determination of the Kiapp of the compounds of the invention against recombinant CYP3A4 enzyme was performed as follows. The assay was performed in a 100 mM sodium phosphate buffer pH 7.0, 5 mM TCEP and containing 2% dimethylformamide (final concentration) upon addition of substrate and inhibitor. A typical reaction for the determination of Kiapp values was carried at room temperature in a solid black Costar u-bottom 96-well polypropylene plate. […] When pre-incubation was completed (˜30 min), the reaction was initiated by adding NADPH (200 uM, final concentration), and 7-benzyloxy-4-(trifluoromethyl)-coumarin (BFC) (5 uM, final concentration). The oxidation of the coumarin substrate was recorded by a 96-well plate reader POLARstar (BMG LABTECH, Offenburg, Germany).
The initial reaction velocities were measured during the first 5 min of the reaction when the release of the fluorescent product is linear with time, in the absence and in the presence of various concentrations of inhibitors.
The fluorescent substrate BFC was purchased from Sigma (St Louis, Mo.). Two commercial sources of recombinant enzymes were used in this study: recombinant CYP3A4-b5 enzyme (Baculosomes®) was purchased from Invitrogen (Carlsbad, Calif.) and the recombinant CYP3A4+b5 enzyme (Supersomes®) was purchased from BD Biosciences (Woburn, Mass.).

CYP3A4 [3] = biological target: T1, CYP3A4; assay: IC50 against CYP3A4 by inhibition of midazolam metabolism in human liver microsomes; conditions: 0.1 mg/mL human liver microsomes, 2 μM midazolam, 1 mM NADPH, 1-hydroxymidazolam production, eight minutes; read-out: IC50, μM (HLM, midazolam)
Method: 3. Determination of IC50 Against CYP3A4 by Measurement of Inhibition of Midazolam Metabolism
This assay was performed using a standard 96 well plate design. […] The incubation substrate mix contains 2 μM midazolam, 0.1 mg/mL human liver microsomes, 1 mM NADPH, and potassium phosphate buffer (100 mM, pH 7.4). Quantitation of metabolite peak area ratio against internal standard is determined by LC-MS/MS analysis. The production of 1-hydroxymidazolam from midazolam metabolism is determined after incubation for eight minutes by comparison to a standard curve generated for the metabolite.
as §1, §2

SMILES | IC50 (CYP3A4 [1]) [µM] | Ki [2] [µM] | IC50 (CYP3A4 [3]) [µM]
Cc1noc(CCNC(=O)Cn2nc(-c3ccncc3)cc2Cc2ccc(F)cc2)n1 [Example 91, 2-[5-(4-fluorobenzyl)-3-pyridin-4-yl-1H-pyrazol-1-yl]-N-[2-(3-methyl-1,2,4-oxadiazol-5-yl)ethyl]acetamide] | 0.018 | 0.112 | 0.019
O=C(CCN1CCOCC1)N1CC(n2nc(-c3ccncc3)cc2Cc2ccc(F)cc2)C1 [Example 67, 4-(3-{3-[5-(4-fluorobenzyl)-3-pyridin-4-yl-1H-pyrazol-1-yl]azetidin-1-yl}-3-oxopropyl)morpholine] | 0.052 | 0.074 | 0.042
O=C(Cn1nc(-c2ccncc2)cc1Cc1ccc(F)cc1)N1CCN(c2ncccn2)CC1 [Example 56, 2-(4-{[5-(4-fluorobenzyl)-3-pyridin-4-yl-1H-pyrazol-1-yl]acetyl}piperazin-1-yl)pyrimidine] | < 0.012 | 0.0303 | < 0.012
O=C(Cn1nc(-c2ccncc2)cc1Cc1ccc(F)cc1)N1CC[C@@H](N2CCOCC2)C1 [Example 103] | 0.068 | 0.106 | 0.025
CN(C)C(=O)c1noc(Cn2nc(-c3ccncc3)cc2Cc2ccc(F)cc2)n1 [Example 27, 5-{[5-(4-fluorobenzyl)-3-pyridin-4-yl-1H-pyrazol-1-yl]methyl}-N,N-dimethyl-1,2,4-oxadiazole-3-carboxamide (maleic acid salt)] | 0.021 | 0.12 | 0.086
Cn1ccnc1CNC(=O)Cn1nc(-c2ccncc2)cc1Cc1ccc(F)cc1 [Example 87, 2-[5-(4-fluorobenzyl)-3-pyridin-4-yl-1H-pyrazol-1-yl]-N-[(1-methyl-1H-imidazol-2-yl)methyl]acetamide] | 0.019 | 0.108 | 0.019
O=C(Cn1nc(-c2ccncc2)cc1Cc1ccc(F)cc1)N1CCC[C@@H]1CO [Example 75, [(2R)-1-{[5-(4-fluorobenzyl)-3-pyridin-4-yl-1H-pyrazol-1-yl]acetyl}pyrrolidin-2-yl]methanol] | 0.0215 | 0.118 | 0.0175
O=C(c1ncc[nH]1)N1CC(n2nc(-c3ccncc3)cc2Cc2ccc(F)cc2)C1 [Example 24, 4-{5-(4-fluorobenzyl)-1-[1-(1H-imidazol-2-ylcarbonyl)azetidin-3-yl]-1H-pyrazol-3-yl}pyridine] | 0.047 | 0.0772 | 0.027
CC(C)(N)CNC(=O)Cn1nc(-c2ccncc2)cc1Cc1ccc(F)cc1 [Example 57, N-(2-amino-2-methylpropyl)-2-[5-(4-fluorobenzyl)-3-pyridin-4-yl-1H-pyrazol-1-yl]acetamide] | 0.062 | 0.124 | 0.064
O=C(Cn1nc(-c2ccncc2)cc1Cc1ccc(F)cc1)N1CC(O)C1 [Example 98, 1-{[5-(4-fluorobenzyl)-3-pyridin-4-yl-1H-pyrazol-1-yl]acetyl}azetidin-3-ol] | 0.082 | 0.378 | 0.108
Fc1ccc(Cc2cc(-c3ccncc3)nn2Cc2nc(N3CCOCC3)no2)cc1 [Example 70, 4-(5-{[5-(4-fluorobenzyl)-3-pyridin-4-yl-1H-pyrazol-1-yl]methyl}-1,2,4-oxadiazol-3-yl)morpholine] | < 0.012 | 0.0238 | 0.019
CN(C1CCN(C(=O)Cn2nc(-c3ccncc3)cc2Cc2ccc(F)cc2)CC1)S(C)(=O)=O [Example 14, N-(1-{[5-(4-fluorobenzyl)-3-pyridin-4-yl-1H-pyrazol-1-yl]acetyl}piperidin-4-yl)-N-methylmethanesulfonamide] | 0.015 | 0.0236 | 0.013
CCC(=O)NC1CCN(C(=O)Cn2nc(-c3ccncc3)cc2Cc2ccc(F)cc2)CC1 [Example 101, N-(1-(2-[5-(4-fluorobenzyl)-3-pyridin-4-yl-1H-pyrazol-1-yl]acetyl}piperidin-4-yl)propanamide] | 0.035 | 0.158 | 0.0105
CN(C(=O)C1CCC1)C1CCN(C(=O)Cn2nc(-c3ccncc3)cc2Cc2ccc(F)cc2)CC1 [Example 12, N-(1-{[5-(4-fluorobenzyl)-3-pyridin-4-yl-1H-pyrazol-1-yl]acetyl}piperidin-4-yl)-N-methylcyclobutanecarboxamide] | 0.009 | 0.00701 | < 0.003
COCCn1nc(-c2ccncc2)cc1Cc1ccc(F)cc1 [Example 31, 4-(5-(4-fluorobenzyl)-1-(2-methoxyethyl)-1H-pyrazol-3-yl)pyridine] | 0.0225 | 0.105 | 0.0466
Cc1noc(Cn2nc(-c3ccncc3)cc2Cc2ccc(F)cc2)n1 [Example 59, 4-{5-(4-fluorobenzyl)-1-[(3-methyl-1,2,4-oxadiazol-5-yl)methyl]-1H-pyrazol-3-yl}pyridine] | 0.0665 | 0.142 | 0.0944
C[C@@H](O)CNC(=O)Cn1nc(-c2ccncc2)cc1Cc1ccc(F)cc1 [Example 63, 2-[5-(4-fluorobenzyl)-3-pyridin-4-yl-1H-pyrazol-1-yl]-N-[(2R)-2-hydroxypropyl]acetamide] | 0.048 | 0.178 | 0.04
OCCn1nc(Cc2ccc(F)cc2)cc1-c1ccncc1 [Example 30, 2-[3-(4-fluorobenzyl)-5-pyridin-4-yl-1H-pyrazol-1-yl]ethanol] | 0.446 | 0.646 | 0.773
O=C(Cn1nc(-c2ccncc2)cc1Cc1ccc(F)cc1)NCc1ncc(F)cn1 [Example 81, 2-[5-(4-fluorobenzyl)-3-pyridin-4-yl-1H-pyrazol-1-yl]-N-[(5-fluoropyrimidin-2-yl)methyl]acetamide] | 0.068 | 0.124 | 0.063
COC(=O)N(C)C1CCN(C(=O)Cn2nc(-c3ccncc3)cc2Cc2ccc(F)cc2)CC1 [Example 15, Methyl (1-{[5-(4-fluorobenzyl)-3-pyridin-4-yl-1H-pyrazol-1-yl]acetyl}piperidin-4-yl)methylcarbamate] | 0.013 | 0.0222 | 0.009
CN(C)[C@@H]1CCN(C(=O)Cn2nc(-c3ccncc3)cc2Cc2ccc(F)cc2)C1 [Example 72, (3R)-1-{[5-(4-fluorobenzyl)-3-pyridin-4-yl-1H-pyrazol-1-yl]acetyl}-N,N-dimethylpyrrolidin-3-amine] | 0.026 | 0.226 | 0.026
Fc1ccc(Cc2cc(-c3ccncc3)nn2Cc2nc(-c3ncccn3)no2)cc1 [Example 25, 2-(5-{[5-(4-fluorobenzyl)-3-pyridin-4-yl-1H-pyrazol-1-yl]methyl}-1,2,4-oxadiazol-3-yl)pyrimidine] | < 0.012 | 0.0568 | 0.045
CCCN(C)C1(C(N)=O)CCN(C(=O)Cn2nc(-c3ccncc3)cc2Cc2ccc(F)cc2)CC1 [Example 92, 1-{[5-(4-fluorobenzyl)-3-pyridin-4-yl-1H-pyrazol-1-yl]acetyl}-4-[methyl(propyl)amino] piperidine-4-carboxamide] | 0.015 | 0.0241 | 0.007
OCCCn1nc(-c2ccncc2)cc1Cc1ccc(F)cc1 [Example 32, 3-(5-(4-fluorobenzyl)-3-(pyridin-4-yl)-1H-pyrazol-1-yl)propan-1-ol] | 0.015 | 0.12 | 0.061
CC(NC(=O)Cn1nc(-c2ccncc2)cc1Cc1ccc(F)cc1)c1cnn(C)c1 (stereo not drawn) [Example 85, 2-[5-(4-fluorobenzyl)-3-pyridin-4-yl-1H-pyrazol-1-yl]-N-[1-(1-methyl-1H-pyrazol-4-yl)ethyl]acetamide] | 0.028 | 0.0843 | 0.031
